Assay results published in the supplement of paper PMC4862054.

Legend:
[1] = system: BT-474; assay: normalised viability (% of control), CellTiter-Blue; higher = more viable cells (about 100 = DMSO control); details: 100 nM; incubation time: 72 h
Protocol: (§1)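 DSRT, CellTiter-Blue viability, 72 h incubation. Signal is normalised to DMSO and benzethonium chloride controls. Value is the normalised response at dose 3.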

[2] = system: BT-549; assay: as above; details: 100 nM; incubation time: 72 h
Protocol: as §1

[3] = system: CAL-120; assay: as above; details: 100 nM; incubation time: 72 h
Protocol: as §1

[4] = system: CAL-148; assay: as above; details: 10 nM; incubation time: 72 h
Protocol: as §1

[5] = system: CAL-51; assay: as above; details: 10 nM; incubation time: 72 h
Protocol: as §1

[6] = system: CAL-85-1; assay: as above; details: 10 nM; incubation time: 72 h
Protocol: as §1

[7] = system: DU-4475; assay: as above; details: 10 nM; incubation time: 72 h
Protocol: as §1

[8] = system: HCC1143; assay: as above; details: 100 nM; incubation time: 72 h
Protocol: as §1

[9] = system: HCC1599; assay: as above; details: 100 nM; incubation time: 72 h
Protocol: as §1

[10] = system: HCC1937; assay: as above; details: 100 nM; incubation time: 72 h
Protocol: as §1

[11] = system: HDQ-P1; assay: as above; details: 10 nM; incubation time: 72 h
Protocol: as §1

[12] = system: Hs578T; assay: as above; details: 100 nM; incubation time: 72 h
Protocol: as §1

[13] = system: MDA-MB-231; assay: as above; details: 100 nM; incubation time: 72 h
Protocol: as §1

[14] = system: MDA-MB-436; assay: as above; details: 100 nM; incubation time: 72 h
Protocol: as §1

[15] = system: MDA-MB-453; assay: as above; details: 10 nM; incubation time: 72 h
Protocol: as §1

[16] = system: MDA-MB-468; assay: as above; details: 100 nM; incubation time: 72 h
Protocol: as §1

[17] = system: MFM-223; assay: as above; details: 100 nM; incubation time: 72 h
Protocol: as §1

[18] = system: SK-BR-3; assay: as above; details: 100 nM; incubation time: 72 h
Protocol: as §1

[19] = system: MDA-MB-453; assay: normalised viability (% of control), CellTiter-Blue; higher = more viable cells (about 100 = DMSO control); details: 1000 nM; incubation time: 72 h
Summary of the method: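 Seeded at 20 µl suspension per well onto compound-loaded 384-well plates, breast cancer cell lines were incubated 72 h. CellTiter-Blue fluorescence at 560/590 nm was then read, with each plate normalised to vehicle (100) and a positive kill control (0). Normalised viability is reported at a single listed concentration of the series.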

[20] = system: BT-474; assay: normalised viability (% of control), CellTiter-Blue; higher = more viable cells (100 = DMSO, 0 = benzethonium chloride kill control); details: 1 nM; incubation time: 72 h
Protocol: (§2)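 DSRT, CellTiter-Blue viability, 72 h incubation. Signal is normalised to DMSO and benzethonium chloride controls. Value is the normalised response at dose 1.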

[21] = system: BT-549; assay: as above; details: 1 nM; incubation time: 72 h
Protocol: as §2

[22] = system: CAL-51; assay: as above; details: 1 nM; incubation time: 72 h
Protocol: as §2

[23] = system: CAL-85-1; assay: as above; details: 1 nM; incubation time: 72 h
Protocol: as §2

[24] = system: DU-4475; assay: as above; details: 1 nM; incubation time: 72 h
Protocol: as §2

[25] = system: HCC1143; assay: as above; details: 1 nM; incubation time: 72 h
Protocol: as §2

[26] = system: HCC1599; assay: as above; details: 1 nM; incubation time: 72 h
Protocol: as §2

[27] = system: MDA-MB-231; assay: as above; details: 1 nM; incubation time: 72 h
Protocol: as §2

[28] = system: MDA-MB-436; assay: as above; details: 1 nM; incubation time: 72 h
Protocol: as §2

[29] = system: MDA-MB-453; assay: as above; details: 1 nM; incubation time: 72 h
Protocol: as §2

[30] = system: MDA-MB-468; assay: as above; details: 1 nM; incubation time: 72 h
Protocol: as §2

[31] = system: SK-BR-3; assay: as above; details: 1 nM; incubation time: 72 h
Protocol: as §2

Row | SMILES | normalised viability [1] [%] | normalised viability [2] [%] | normalised viability [3] [%] | normalised viability [4] [%] | normalised viability [5] [%] | normalised viability [6] [%] | normalised viability [7] [%] | normalised viability [8] [%] | normalised viability [9] [%] | normalised viability [10] [%] | normalised viability [11] [%] | normalised viability [12] [%] | normalised viability [13] [%] | normalised viability [14] [%] | normalised viability [15] [%] | normalised viability [16] [%] | normalised viability [17] [%] | normalised viability [18] [%] | normalised viability [19] [%] | normalised viability [20] [%] | normalised viability [21] [%] | normalised viability [22] [%] | normalised viability [23] [%] | normalised viability [24] [%] | normalised viability [25] [%] | normalised viability [26] [%] | normalised viability [27] [%] | normalised viability [28] [%] | normalised viability [29] [%] | normalised viability [30] [%] | normalised viability [31] [%]
1 | CC[C@H](Nc1ncnc2[nH]cnc12)c1nc2cccc(F)c2c(=O)n1-c1ccccc1 [CAL-101] | 112 | 102 | 97.2 | 96.2 | 84.7 | 87.5 | 98.6 | 102 | 73.6 | 97.1 | 112 | 89.6 | 80.9 | 104 | 97.4 | 115 | 88.3 | 76.3 | 87.7 | 100 | 97.9 | 88.6 | 90 | 106 | 94 | 82.4 | 82.3 | 116 | 89.8 | 100 | 97.4
2 | C=CC(=O)Nc1cc2c(Nc3ccc(F)c(Cl)c3)ncnc2cc1OCCCN1CCOCC1 [Canertinib] | 55.7 | 114 | 81.5 | 81.9 | 109 | 85.4 | 108 | 90.1 | 91.8 | 97.4 | 96.6 | 79.4 | 91.7 | 102 | 95 | 67.1 | 98.3 | 21.4 | 33.8 | 97.5 | 110 | 109 | 80 | 98.5 | 90.2 | 94.8 | 98.5 | 97.5 | 103 | 110 | 86.2
3 | O=C(O)C1(C(=O)O)CCC1.[NH2-].[NH2-].[Pt+2] [Carboplatin] | 116 | 101 | 88 | 92.4 | 100 | 87.3 | 98.9 | 86.4 | 92.8 | 94.5 | 96.6 | 96 | 92.7 | 93.3 | 103 | 98.8 | 88 | 91.1 | 99.3 | 109 | 95.2 | 99.2 | 90.2 | 104 | 90.7 | 91.3 | 105 | 102 | 98.7 | 100 | 105
